Values quoted from earlier work, collected in paper PMC10093509, “Diagnosis and Treatment of Peripheral and Cranial Nerve Tumors with Expert Recommendations: An EUropean Network for RAre CANcers (EURACAN) Initiative” (Cancers, 2023).
Read-outs that look alike come from different tables or passages of the source. *1 amine or outer side, *2 acyl side, *3 side chain or, on linkers, in order; H or OH if unused. Where a SMILES comes first, the peptide text is derived from it. Bridges are numbered along the chain shown (N, C = ends). Roman numbers before positions name the chains, in order. [ ]: non-standard residue; d: D form. Actinocin(9to1) = Cc1c2oc3c(C)ccc(C(=O)[*:1])c3nc-2c(C(=O)[*:2])c(N)c1=O; NMeV = CN[C@H](C(=O)O)C(C)C; Sar = CNCC(=O)O

How the values were obtained:
MPNST [1] = tested on: MPNST; design: method as in PMID 20838322; conditions: alone or in combination
[2] = tested on: NF1 PNs, progressive or causing significant neurological symptoms
[3] = tested on: progressive or symptomatic inoperable PNs
MPNST [4] = tested on: MPNST; design: method as in doi:10.1200/jco.2006.24.18_suppl.9518
[5] = tested on: plexiform neurofibromas (PN) of neurofibromatosis; design: method as in PMID 23099009, PMID 24500418, PMID 24753394, PMID 24851266, PMID 25314964; conditions: initial studies
MPNST [6] = tested on: MPNST; design: method as in PMID 27502708
[7] = tested on: MPNST harboring a novel SNRNP70-NTRK3 fusion gene
[8] = tested on: progressive vestibular schwannomas (VS) associated with NF2; design: method as in PMID 26976425; conditions: 7.5 mg/kg every 3 weeks
[9] = tested on: progressive VS associated with NF2; design: method as in PMID 22805104
[10] = tested on: unresectable or metastatic MPNST; design: method as in PMID 33512749; conditions: one patient with NF1-associated MPNST; selinexor alone
NF-1-associated PN = tested on: NF-1-associated PN; design: method as in doi:10.1200/JCO.2018.36.15_suppl.10504
[11] = tested on: NF-1-associated PNs or low-grade gliomas; design: method as in PMID 36015104; conditions: meta-analysis
[12] = tested on: sporadic metastatic MPNST; design: method as in PMID 31383651; conditions: one patient; following four cycles
MPNST [13] = tested on: MPNST; design: method as in PMID 19451436; conditions: 15 patients
[14] = tested on: progressive and/or symptomatic PNs; design: method as in PMID 33507822
advanced MPNST = tested on: advanced MPNST; design: method as in PMID 32638374
MPNST [15] = tested on: MPNST; design: method as in PMID 24618336
NF1 inoperable PNs [16] = tested on: NF1 inoperable PNs; design: method as in PMID 28029918
NF1 inoperable PNs [17] = tested on: NF1 inoperable PNs
spinal PNs = tested on: spinal PNs; design: method as in PMID 35467749, PMID 32939452
asymptomatic PNs = tested on: asymptomatic PNs; design: method as in PMID 35467749; conditions: median 41 cycles (2–67)
[18] = tested on: unresectable, symptomatic, and progressive PNs; conditions: adults
NF1-associated MPNST = tested on: NF1-associated MPNST; design: method as in PMID 35100687; conditions: one patient
MPNST [19] = tested on: MPNST; design: method as in PMID 26710211; conditions: 14 MPNST patients
MPNST [20] = tested on: MPNST; design: method as in PMID 19451433; conditions: seven MPNST patients

In the case of `Cc1c2oc3c(C)ccc(C(=O)N[C@@H]4C(=O)N[C@H](C(C)C)C(=O)N5CCC[C@H]5C(=O)N(C)CC(=O)N(C)[C@@H](C(C)C)C(=O)O[C@@H]4C)c3nc-2c(C(=O)N[C@@H]2C(=O)N[C@H](C(C)C)C(=O)N3CCC[C@H]3C(=O)N(C)CC(=O)N(C)[C@@H](C(C)C)C(=O)O[C@@H]2C)c(N)c1=O` [dactinomycin] (I: T[dV]P[Sar][NMeV] / II: T[dV]P[Sar][NMeV]; ester I:1-I:C, II:1-II:C; linker I:N-II:N via Actinocin(9to1)), the “results in treatment of MPNST” value (MPNST [1]) is listed as “disappointing results”.
For `Cn1cnc2c(F)c(Nc3ccc(Br)cc3F)c(C(=O)NOCCO)cc21` [binimetinib], the “discontinuation of treatment (patients)” value [2] is given as 2 patients, the “dose reduction required for grade 3 adverse events (patients)” value [2] is given as 13 patients and the PR ([2]; 14 out of 19 patients) is given as 73.7%.
For `COc1cc2nccc(Oc3ccc(NC(=O)C4(C(=O)Nc5ccc(F)cc5)CC4)cc3)c2cc1OC` [Cabozantinib], the “patients who experienced grade 3 adverse events” value [3] is listed as 38%, the quality of life [3] is listed as “no significant improvement” and the ORR ([3]; NF-105) is listed as 42%. The intensity of pain ([3]; after four cycles, patients who achieved a PR) was “early decrease” and the tumor volume reduction ([3]; from 2.8% to −38.0%) was 15%.
For `CC[C@]1(O)C[C@H]2CN(CCc3c([nH]c4ccccc34)[C@@](C(=O)OC)(c3cc4c(cc3OC)N(C=O)[C@H]3[C@@](O)(C(=O)OC)[C@H](OC(C)=O)[C@]5(CC)C=CCN6CC[C@]43[C@@H]65)C2)C1` [vincristine], the “results in treatment of MPNST” value (MPNST [1]) is given as “disappointing results”.
For `c1c[nH]cn1` [imidazole], the “results in treatment of MPNST” value (MPNST [1]) is given as “disappointing results”.
For `C#Cc1cccc(Nc2ncnc3cc(OCCOC)c(OCCOC)cc23)c1` [erlotinib], the OS (MPNST [4]) is listed as 48 weeks and the PFS (MPNST [4]) is listed as 24 weeks.
In the case of `CO[C@H]1C[C@@H]2CC[C@@H](C)[C@@](O)(O2)C(=O)C(=O)N2CCCC[C@H]2C(=O)O[C@H]([C@H](C)C[C@@H]2CC[C@@H](O)[C@H](OC)C2)CC(=O)[C@H](C)/C=C(\C)[C@@H](O)[C@@H](OC)C(=O)[C@H](C)C[C@H](C)/C=C/C=C/C=C/1C` [sirolimus], the “benefit in PN” value [5] is listed as “limited benefits”.
For `O=P1(N(CCCl)CCCl)NCCCO1` (stereo not shown) [cyclophosphamide], the “results in treatment of MPNST” value (MPNST [1]) is given as “disappointing results”.
For `COc1cc(Nc2ncc3c(n2)-c2ccc(Cl)cc2C(c2c(F)cccc2OC)=NC3)ccc1C(=O)O` [alisertib], the OS (MPNST [6]) is given as 69 weeks and the PFS (MPNST [6]) is given as 13 weeks.
In the case of `CN1CCN(c2ccc(C(=O)Nc3n[nH]c4ccc(Cc5cc(F)cc(F)c5)cc34)c(NC3CCOCC3)c2)CC1` [entrectinib], the response ([7]; one heavily pretreated patient) is listed as “dramatic response” and the duration of response ([7]; one patient) is listed as 10 months.
For bevacizumab, the “partial radiographic response with volume reduction of 20% or more (patients)” value ([8]; 6/14 patients) is listed as 43%, the “hearing improvement (patients)” value ([8]; NF2 patients with progressive VS) is listed as 36% and the “hearing and radiographic outcome” value [9] is listed as “remarkable improvement of hearing and objective radiographic responses”.
For `N.N.[Cl][Pt][Cl]` [cisplatin], the “results in treatment of MPNST” value (MPNST [1]) is listed as “disappointing results”.
For interferon alfa-2b, the “benefit in PN” value [5] is listed as “limited benefits”.
In the case of `O=C(/C=C\n1cnc(-c2cc(C(F)(F)F)cc(C(F)(F)F)c2)n1)NNc1cnccn1` [selinexor], the “duration of disease stabilization” value [10] is listed as 13.5 months.
In the case of `CC(=O)Nc1cccc(-n2c(=O)n(C3CC3)c(=O)c3c(Nc4ccc(I)cc4F)n(C)c(=O)c(C)c32)c1` [trametinib], the “duration of radiological response” value (NF-1-associated PN) is listed as “more than 12 months”, the PR (NF-1-associated PN; 12 out of 26 patients, interim analysis) is listed as 46% and the side effects (NF-1-associated PN; such as paronychia and rash) is listed as “manageable”. For the same compound, the ORR [11] was 45.3% and the disease control rate [11] was 99.8%.
In the case of pembrolizumab, the response [12] is listed as “complete response”.
In the case of `CNC(=O)c1cc(Oc2ccc(NC(=O)Nc3ccc(Cl)c(C(F)(F)F)c3)cc2)ccn1` [sorafenib], the radiological responses (MPNST [13]) is given as “absence of radiological responses”.
For `O=C(NOC[C@H](O)CO)c1ccc(F)c(F)c1Nc1ccc(I)cc1F` [Mirdametinib], the “median reduction in tumor volume” value [14] is listed as 17.1%, the “most frequent AEs” value [14] is listed as “acneiform rash, fatigue, and nausea” and the “patient-reported outcomes over treatment” value [14] is listed as “improvement”.
For `Cc1ccc(Nc2nccc(N(C)c3ccc4c(C)n(C)nc4c3)n2)cc1S(N)(=O)=O` [pazopanib], the OS (advanced MPNST) is given as 10.6 months, the PFS (advanced MPNST) is given as 5.4 months and the clinical benefit rate (advanced MPNST; at 12 weeks) is given as 50%.
In the case of `Cc1ccc(=O)n(-c2ccccc2)c1` [pirfenidone], the “benefit in PN” value [5] is listed as “limited benefits”.
In the case of `Cn1cncc1[C@@](N)(c1ccc(Cl)cc1)c1ccc2c(c1)c(-c1cccc(Cl)c1)cc(=O)n2C` [tipifarnib], the “benefit in PN” value [5] is given as “limited benefits”.
For `CO[C@H]1C[C@@H]2CC[C@@H](C)[C@@](O)(O2)C(=O)C(=O)N2CCCC[C@H]2C(=O)O[C@H]([C@H](C)C[C@@H]2CC[C@@H](OCCO)[C@H](OC)C2)CC(=O)[C@H](C)/C=C(\C)[C@@H](O)[C@@H](OC)C(=O)[C@H](C)C[C@H](C)/C=C/C=C/C=C/1C` [everolimus], the “benefit in PN” value [5] is given as “limited benefits”.
For `COc1cccc2c1C(=O)c1c(O)c3c(c(O)c1C2=O)C[C@@](O)(C(=O)CO)C[C@@H]3O[C@H]1C[C@H](N)[C@H](O)[C@H](C)O1` [doxorubicin], the “median OS” value (MPNST [15]) is given as 51 weeks and the “median PFS” value (MPNST [15]) is given as 16 weeks.
In the case of `Cn1cnc2c(F)c(Nc3ccc(Br)cc3Cl)c(C(=O)NOCCO)cc21` [selumetinib], the “median reduction in tumor volume” value (NF1 inoperable PNs [16]; phase 1) is listed as 31%, the “stable disease (patients)” value (NF1 inoperable PNs [16]; phase 1) is listed as 2 and the “objective response rate (ORR)” value (NF1 inoperable PNs [16]; phase 1, 3–18 years) is listed as 71%. For the same compound, the “median time PR maintained” value (NF1 inoperable PNs [16]; range 6–42) was 23 cycles, the “clinically meaningful improvement in child-reported interference of pain in daily functioning” value (NF1 inoperable PNs [17]; SPRINT) was 38% and the “clinically meaningful improvement in overall health-related QoL” value (NF1 inoperable PNs [17]; SPRINT) was 48%. The “median reduction in tumor volume” value (NF1 inoperable PNs [17]; SPRINT) was 27%, the ORR (NF1 inoperable PNs [17]; SPRINT, 50 patients) was 68% and the “median progression-free survival (PFS)” value (NF1 inoperable PNs [17]; at the time of interim-analysis) was “not reached”. The toxicity (NF1 inoperable PNs [17]; children, creatine kinase increase, rash, paronychia, gastrointestinal toxicity) was “mostly mild and reversible”, the “clinical benefit and radiological response with reduction of spinal canal distortion and/or spinal cord deformity (patients)” value (spinal PNs) was 18/24 and the “patients achieving tumor shrinkage” value (asymptomatic PNs) was 72%. The “increased liver enzymes (patients)” value [18] was “five”, the pain intensity [18] was “decreased pain intensity” and the “pancreatic enzyme elevation (patients)” value [18] was “one”. The “rash (patients)” value [18] was “one”, the ORR ([18]; phase 2) was 69% and the “tumor volume shrinkage as best response” value ([18]; phase 2) was 22%.
For nivolumab, the response (NF1-associated MPNST) is given as “prolonged PR”.
For `Cc1nc(Nc2ncc(C(=O)Nc3c(C)cccc3Cl)s2)cc(N2CCN(CCO)CC2)n1` [dasatinib], the ORR (MPNST [19]) is given as “did not show any ORR”.
In the case of `N.N.O=C([O-])C1(C(=O)[O-])CCC1.[Pt+2]` [carboplatin], the “results in treatment of MPNST” value (MPNST [1]) is listed as “disappointing results”.
For `Cc1ccc(NC(=O)c2ccc(CN3CCN(C)CC3)cc2)cc1Nc1nccc(-c2cccnc2)n1` [imatinib], the “benefit in PN” value [5] is given as “limited benefits”, the best response (MPNST [20]) is given as “stable disease as the best response in one patient” and the “median PFS” value (MPNST [20]) is given as 1.9 months.
